We go through 36 compounds from patent US11208411B2, “Compositions and methods for treating parasitic diseases” (THE REGENTS OF THE UNIVERSITY OF CALIFORNIA, priority 2016, dated 2021).

The target in one series is Src (Homo sapiens (Human), UniProt P12931). Briefly: Src kinase inhibition. Also on record: Src % Inhibition: concentration or dose not given beside the values. Type of series: biochemical.
A further series deals with TgCDPK1 (Toxoplasma gondii, UniProt Q9BJF5). Briefly: TgCDPK1 kinase assay, syntide-2 peptide-based ELISA. It is filed as biochemical. (An ELISA detects its analyte on a solid surface through an enzyme-linked reagent.)
Sequence of TgCDPK1 (Q9BJF5 1-507): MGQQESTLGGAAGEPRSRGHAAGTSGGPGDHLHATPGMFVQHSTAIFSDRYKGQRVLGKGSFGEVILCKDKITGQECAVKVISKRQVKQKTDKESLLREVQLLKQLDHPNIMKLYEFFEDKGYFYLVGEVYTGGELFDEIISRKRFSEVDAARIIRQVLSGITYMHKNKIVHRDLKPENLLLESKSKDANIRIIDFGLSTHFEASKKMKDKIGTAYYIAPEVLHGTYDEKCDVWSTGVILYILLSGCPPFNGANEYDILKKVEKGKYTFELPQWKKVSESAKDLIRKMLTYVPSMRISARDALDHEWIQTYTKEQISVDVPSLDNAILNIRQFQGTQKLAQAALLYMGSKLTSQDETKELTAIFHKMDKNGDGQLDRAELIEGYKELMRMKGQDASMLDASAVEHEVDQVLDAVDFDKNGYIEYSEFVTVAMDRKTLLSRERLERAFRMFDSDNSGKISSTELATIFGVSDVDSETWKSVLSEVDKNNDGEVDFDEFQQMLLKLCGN
Series [1] is described as follows: Stability in rat liver microsomes. The settings on record: 1 mM NADPH, read-out: Microsome Half-Life. Type of series: in vitro ADME.
The test system of series [2] is T. gondii type I RH strain, 2F clone. Kind of series: Inhibition of parasite growth in vitro in HFF monolayers (beta-Gal readout). It is filed as cell-based.
A short description of the next series: In vivo pharmacokinetics. The settings on record: iv, 3 mg/kg.
[3] abbreviates: Toxoplasma gondii, 72 h; read-out: Parasite Growth EC50.

pEC50, pIC50: −log10 of the molar value. Read-outs that look alike come from different tables or passages of the source.

Sequence of Src (P12931 whole entry, looked up): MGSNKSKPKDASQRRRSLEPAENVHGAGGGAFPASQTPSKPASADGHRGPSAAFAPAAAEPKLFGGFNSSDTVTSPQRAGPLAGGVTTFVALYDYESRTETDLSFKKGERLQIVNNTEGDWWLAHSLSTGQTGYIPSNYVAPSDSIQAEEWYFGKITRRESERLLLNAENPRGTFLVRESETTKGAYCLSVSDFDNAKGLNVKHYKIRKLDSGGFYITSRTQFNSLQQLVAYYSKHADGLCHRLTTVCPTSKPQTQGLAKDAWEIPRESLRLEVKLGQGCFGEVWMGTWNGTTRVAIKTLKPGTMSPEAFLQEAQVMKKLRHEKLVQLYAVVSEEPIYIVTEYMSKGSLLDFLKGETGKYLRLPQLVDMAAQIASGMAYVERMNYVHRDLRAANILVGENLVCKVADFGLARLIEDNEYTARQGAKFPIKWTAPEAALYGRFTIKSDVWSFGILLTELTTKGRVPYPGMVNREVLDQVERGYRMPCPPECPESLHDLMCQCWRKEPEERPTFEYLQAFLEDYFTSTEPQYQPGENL

For the compound `CC(C)(C)n1nc(Oc2cc(F)cc(F)c2)c2c(N)ncnc21` [GXJ229, 1-(tert-butyl)-3-(3,5-difluorophenoxy)-1H-pyrazolo[3,4-d]pyrimidin-4-amine], on Src, the “Src % Inhibition” value was 87.48%.

For `Nc1ncnc2c1c(Oc1cccc(Cl)c1)nn2CC1(C(F)(F)F)CC1` [FUR7-2, 3-(3-chlorophenoxy)-1-((1-(trifluoromethyl)cyclopropyl)methyl)-1H-pyrazolo[3,4-d]pyrimidin-4-amine], at Src, the “Src % Inhibition” value is reported as 91.63%.

As to `Nc1ncnc2c1c(Sc1cccc(Cl)c1)cn2CC1CCNCC1` [FUR 6-139, 5-((3-chlorophenyl)thio)-7-(piperidin-4-ylmethyl)-7H-pyrrolo[2,3-d]pyrimidin-4-amine], on Src, the “Src % Inhibition” value was 97.49%.

Turning to `CC(C)(C)n1nc(Cc2cccc(Cl)c2)c2c(N)ncnc21` [Compound 3CIB-PP1, 1-(tert-butyl)-3-(3-chlorobenzyl)-1H-pyrazolo[3,4-d]pyrimidin-4-amine, reference compound], the “Src % Inhibition” value on Src is 18.48%.

Consider `Cc1cccc(Sc2nn(CC3CCNCC3)c3ncnc(N)c23)c1` [FUR7-77, 1-(piperidin-4-ylmethyl)-3-(m-tolylthio)-1H-pyrazolo[3,4-d]pyrimidin-4-amine], for which the “Src % Inhibition” value at Src was 80.21%.

For `Nc1ncnc2c1c(Sc1cccc(Cl)c1)nn2CC1CCNCC1` [FUR 5-56], the “Src % Inhibition” value at Src was found to be 102.82%.

For the compound `Nc1ncnc2c1c(Oc1cccc(Cl)c1)nn2CC1CNC1` [FUR6-12, 1-(azetidin-3-ylmethyl)-3-(3-chlorophenoxy)-1H-pyrazolo[3,4-d]pyrimidin-4-amine], the “Src % Inhibition” value at Src is 91.81%.

Regarding `CN1CCC(Cn2nc(Oc3cccc(Cl)c3)c3c(N)ncnc32)CC1` [FUR7-30, 3-(3-chlorophenoxy)-1-((1-methylpiperidin-4-yl)methyl)-1H-pyrazolo[3,4-d]pyrimidin-4-amine], on Src, the “Src % Inhibition” value was determined as 96.94%.

In the case of `Nc1ncnc2c1c(Oc1cccc(Cl)c1)nn2CC1CCNCC1` [GXJ237, 3-(3-chlorophenoxy)-1-(piperidin-4-ylmethyl)-1H-pyrazolo[3,4-d]pyrimidin-4-amine], at Src, the “Src % Inhibition” value was found to be 87.87%.

`CC(C)(C)n1nc(Cc2c[nH]c3ccccc23)c2c(N)ncnc21` [LJQ-138, 3-((1H-indol-3-yl)methyl)-1-(tert-butyl)-1H-pyrazolo[3,4-d]pyrimidin-4-amine] showed a pIC50 on TgCDPK1 of 7.91. Also, the half-life in series [1] stood at 2 min. The pEC50 in series [2] (setting [3]) was 6.75. In addition, at Src, the pIC50 was under 5.00 and the “Src % Inhibition” value worked out at 74.94%.

In the case of `Nc1ncnc2c1c(Oc1cccc(Cl)c1)nn2CC1CCNC1` (stereo not shown) [FUR6-13, 3-(3-chlorophenoxy)-1-(pyrrolidin-3-ylmethyl)-H-pyrazolo[3,4-d]pyrimidin-4-amine], the “Src % Inhibition” value on Src turned out to be 99.50%.

Turning to `CC(C)(C)n1nc(Oc2cccc(Br)c2)c2c(N)ncnc21` [GXJ177, 3-(3-bromophenoxy)-1-(tert-butyl)-1H-pyrazolo[3,4-d]pyrimidin-4-amine], at Src, the “Src % Inhibition” value was 73.35%.

For `Nc1ncnc2c1c(Oc1cccc(Cl)c1)nn2CC1CCOCC1` [FUR7-89, 3-(3-chlorophenoxy)-1-((tetrahydro-2H-pyran-4-yl)methyl)-1H-pyrazolo[3,4-d]pyrimidin-4-amine], the “Src % Inhibition” value at Src is 77.33%.

On to `CC(C)(C)n1nc(Nc2cccc(Cl)c2)c2c(N)ncnc21` [LZH118, 1-(tert-butyl)-N^3-(3-chlorophenyl)-1H-pyrazolo[3,4-d]pyrimidine-3,4-diamine], for which the “Src % Inhibition” value at Src worked out at 21.86%.

As for `Cc1cccc(Sc2nn(C(C)(C)C)c3ncnc(N)c23)c1` [FUR7-68, 1-(tert-butyl)-3-(m-tolylthio)-1H-pyrazolo[3,4-d]pyrimidin-4-amine], at TgCDPK1, the pIC50 is 7.64. The half-life in series [1] is 1 min. For the same compound, the negative-log EC50 (pEC50) in series [2] (setting [3]) is 6.42. Further, on Src, the pIC50 is under 5.00 and the “Src % Inhibition” value was 64.39%.

The compound `CC(C)(C)n1nc(Cc2csc3ccccc23)c2c(N)ncnc21` [CZ43, 3-(benzo[b]thiophen-3-ylmethyl)-1-(tert-butyl)-1H-pyrazolo[3,4-d]pyrimidin-4-amine] had a pIC50 at TgCDPK1 of 8.13. Further, the half-life in series [1] was determined as 2.5 min. Further, the pEC50 in series [2] (setting [3]) was 6.87. In addition, on Src, the pIC50 is 7.85 and the “Src % Inhibition” value is 28.21%.

As to `Nc1ncnc2c1c(Oc1ccc(F)c(Cl)c1)nn2CC1CCNCC1` [GXJ261, 3-(3-chloro-4-fluorophenoxy)-1-(piperidin-4-ylmethyl)-1H-pyrazolo[3,4-d]pyrimidin-4-amine], the “Src % Inhibition” value on Src worked out at 78.16%.

Turning to `Cc1cccc(Oc2nn(C(C)(C)C)c3ncnc(N)c23)c1` [GXJ176, 1-(tert-butyl)-3-(m-tolyloxy)-1H-pyrazolo[3,4-d]pyrimidin-4-amine], the “Src % Inhibition” value on Src is 84.24%.

For the compound `CC(C)(C)n1nc(Sc2cccc(Cl)c2)c2c(N)ncnc21` [GXJ186, 1-(tert-butyl)-3-((3-chlorophenyl)thio)-1H-pyrazolo[3,4-d]pyrimidin-4-amine], the “Src % Inhibition” value at Src is on record as 72.84%.

`Nc1ncnc2c1c(Cc1c[nH]c3ccccc13)nn2CC1CCNCC1` [FUR6-95, 3-((1H-indol-3-yl)methyl)-1-(piperidin-4-ylmethyl)-1H-pyrazolo[3,4-d]pyrimidin-4-amine]: the negative logarithm of the IC50 (pIC50) on TgCDPK1 was 7.62. Further, the half-life in series [1] is over 60 min. The pEC50 in series [2] (setting [3]) was under 5.00. Moreover, on Src, the negative-log IC50 (pIC50) was under 5.00 and the “Src % Inhibition” value worked out at 92.70%.

As to `Nc1ncnc2c1c(Oc1cccc(Cl)c1)nn2CC1CCNCC1(F)F` (stereo not shown) [FUR7-27, 3-(3-chlorophenoxy)-1-((3,3-difluoropiperidin-4-yl)methyl)-1H-pyrazolo[3,4-d]pyrimidin-4-amine], at Src, the “Src % Inhibition” value amounted to 87.87%.

`COc1cccc(Oc2nn(C(C)(C)C)c3ncnc(N)c23)c1` [GXJ230, 1-(tert-butyl)-3-(3-methoxyphenoxy)-1H-pyrazolo[3,4-d]pyrimidin-4-amine]: the “Src % Inhibition” value on Src is recorded as 77.53%.

For the compound `Nc1ncnc2c1c(Oc1cccc(Cl)c1)nn2Cc1ccncc1` [FUR6-6, 3-(3-chlorophenoxy)-1-(pyridin-4-ylmethyl)-1H-pyrazolo[3,4-d]pyrimidin-4-amine], at Src, the “Src % Inhibition” value stood at 93.91%.

As for `Nc1ncnc2c1c(Cc1cccc(Cl)c1)nn2CC1CCNCC1` [FUR6-157, 3-(3-chlorobenzyl)-1-(piperidin-4-ylmethyl)-1H-pyrazolo[3,4-d]pyrimidin-4-amine], the “Src % Inhibition” value at Src was 87.11%.

`Nc1ncnc2c1c(Cc1c[nH]c3ccccc13)nn2CC1(C(F)(F)F)CC1` [WXT-2, 3-((1H-indol-3-yl)methyl)-1-((1-(trifluoromethyl)cyclopropyl)methyl)-1H-pyrazolo[3,4-d]pyrimidin-4-amine] showed a pIC50 against TgCDPK1 of 7.42. Also, in series [1], the half-life turned out to be 4.7 min. The pEC50 in series [2] (Toxoplasma gondii, 72 h, read-out: Parasite Growth EC50) is 6.69. On Src, the pIC50 is under 5.00 and the “Src % Inhibition” value turned out to be 96.00%.

Take `Nc1ncnc2c1c(Oc1cccc(Cl)c1)nn2CC1CCNC(=O)C1` (stereo not shown) [FUR7-36, 4-((4-amino-3-(3-chlorophenoxy)-1H-pyrazolo[3,4-d]pyrimidin-1-yl)methyl)piperidin-2-one]: the “Src % Inhibition” value at Src amounted to 96.13%.

As to `Nc1ncnc2c1c(Cc1cc(F)cc(F)c1)nn2CC1CCNCC1` [MLC468, 3-(3,5-difluorobenzyl)-1-(piperidin-4-ylmethyl)-1H-pyrazolo[3,4-d]pyrimidin-4-amine], the “Src % Inhibition” value at Src is given as 94.97%.

As to `Nc1ncnc2c1c(Oc1cccc(Cl)c1)nn2CC1CCCNC1` (stereo not shown) [FUR6-11, 3-(3-chlorophenoxy)-1-(piperidin-3-ylmethyl)-1H-pyrazolo[3,4-d]pyrimidin-4-amine], at Src, the “Src % Inhibition” value is on record as 90.05%.

`Nc1ncnc2c1c(Sc1c[nH]c3ccccc13)nn2CC1CCNCC1` [FUR 5-57, 3-((1H-indol-3-yl)thio)-1-(piperidin-4-ylmethyl)-1H-pyrazolo[3,4-d]pyrimidin-4-amine]: the half-life in series [1] is 12 min.

On TgCDPK1, `CC(C)(C)n1nc(Sc2c[nH]c3ccccc23)c2c(N)ncnc21` [FUR6-159, 3-((1H-indol-3-yl)thio)-1-(tert-butyl)-1H-pyrazolo[3,4-d]pyrimidin-4-amine] had a pIC50 of 6.69. In series [1], the half-life was 2.6 min. Moreover, the pEC50 in series [2] (setting [3]) was under 5.00. Further, on Src, the pIC50 is under 5.00 and the “Src % Inhibition” value was 97.66%.

Regarding `CC(C)(C)n1nc(Cc2coc3ccccc23)c2c(N)ncnc21` [LJQ-145, 3-(benzofuran-3-ylmethyl)-1-(tert-butyl)-1H-pyrazolo[3,4-d]pyrimidin-4-amine], the pIC50 against TgCDPK1 was 7.62. Further, the half-life in series [1] was 1.7 min. Further, in series [2] (setting [3]), the pEC50 was 5.69. Moreover, the “Src % Inhibition” value at Src is given as 36.04%.

As for `Nc1ncnc2c1c(Nc1cccc(Cl)c1)nn2CC1CCNCC1` [GXJ276, N^3-(3-chlorophenyl)-1-(piperidin-4-ylmethyl)-1H-pyrazolo[3,4-d]pyrimidine-3,4-diamine], the “Src % Inhibition” value on Src amounted to 24.50%.

As to `CC(C)(C)n1nc(Oc2cccc(C(F)(F)F)c2)c2c(N)ncnc21` [GXJ178, 1-(tert-butyl)-3-(3-(trifluoromethyl)phenoxy)-1H-pyrazolo[3,4-d]pyrimidin-4-amine], at Src, the “Src % Inhibition” value is 79.53%.

On to `CC(C)(C)n1nc(Cc2cc(F)cc(F)c2)c2c(N)ncnc21` [CZ75, 1-(tert-butyl)-3-(3,5-difluorobenzyl)-1H-pyrazolo[3,4-d]pyrimidin-4-amine], for which the “Src % Inhibition” value at Src came out at 91.31%.

Turning to `Nc1ncnc2c1c(Sc1cccc(Cl)c1)nn2CC1CCNCC1(F)F` (stereo not shown) [FUR 7-76], the “Src % Inhibition” value at Src is 76.47%.

In the case of `CC(C)(C)n1nc(Oc2cccc(Cl)c2)c2c(N)ncnc21` [GXJ184, 1-(tert-butyl)-3-(3-chlorophenoxy)-1H-pyrazolo[3,4-d]pyrimidin-4-amine], the “Co (initial conc.)” value in “In vivo pharmacokinetics” is 5471.09 ng/mL. On Src, the “Src % Inhibition” value was 79.94%.

Usually pIC50 stands for the negative decadic logarithm of the IC50, by convention in mol/L. The term half-life denotes the time in which the quantity being followed falls by half. Usually pEC50 stands for the EC50 on a negative log10 scale, so that one unit is a factor of ten.
